Reference: US20240261315A1 (Omikron Italia S.r.l., priority 2021, published 2024)

Legend:
[1] = design: species or system Sprague-Dawley rats; conditions: male, Sprague-Dawley, rat, in vivo
Description: The bioavailability of citicoline existing in the composition, the invention relates to, was surveyed by making a bioavailability study on Sprague-Dawley rats. In particular, 30 Sprague-Dawley male rats, weighing 175 and 225 g, were subjected fasting 16 hours before administration.
For the preparation of the radiomarked formulations 14C-methylCiticoline and […] were used.
The preparations were purified by ion-exchange chromatography by using isobutyric acid:water-ammonia:EDTA (500:280:21:8), n-butanol:acetic acid:water (12:3:5), ethanol:1 mol/l ammonium acetate pH 7 (5:2), ethanol:saturated borax (8%):0.5 mol/l EDTA:5 mol/l ammonium acetate (220:80:0.5:20).
The samples were analysed with a liquid scintillator counter LSC, according to the programme for ^14C.
For the quantitative analysis Packard soluene (solubilizing agent), H2O2 (bleaching agent) and Packard Instagel (scintillator) were used as reagents.
The formulations were administered at the dose of 5 mg/kg respectively: Group 1, intravenously in the jugular vein; Group 2, in oral solution administered by nasogastric tube; Group 3, in tablets dissolved in saline solution and administered by nasogastric tube.
The collections of blood samples of about […] were obtained at programmed time (after administration at 10′, 20′, 30′, 1 h, 2 h, 3 h, 4 h, 5 h, 6 h, 7 h, 24 h). […]

[2] = system: patients affected by open-angle glaucoma; assay: Clinical observation in open-angle glaucoma patients: intraocular pressure (Goldmann tonometry); assay type: in vivo, human; conditions: after 6 months of treatment, in addition to hypotensive therapy, 3 patients
Description: 12 randomized patients were included in 4 groups: • CIT. GROUP-3 patients treated with citicoline in oral solution 10 ml/die corresponding to 500 mg/die of citicoline, in addition to the hypotensive therapy; • NIC. […] The patients were treated and followed for 6 months. At baseline and after 6 months of treatment complete eye examination including visual acuity, control of the intraocular pressure (IOP) with Goldmann tonometry (GAT); visual field testing, electro-functional and morphological examination were performed.

[3] = system: patients affected by open-angle glaucoma; assay: Clinical observation: visual field testing by automatic perimetry (MD); assay type: in vivo, human; conditions: for change in MD: 6 months, vs baseline or not treated group; for MD: after 6 months of treatment, in addition to hypotensive therapy, 3 patients
Description: 12 randomized patients were included in 4 groups: • CIT. GROUP-3 patients treated with citicoline in oral solution 10 ml/die corresponding to 500 mg/die of citicoline, in addition to the hypotensive therapy; • NIC. […] The patients were treated and followed for 6 months. At baseline and after 6 months of treatment complete eye examination including visual acuity, control of the intraocular pressure (IOP) with Goldmann tonometry (GAT); visual field testing, electro-functional and morphological examination were performed. (1) The visual field testing was performed with automatic perimetry (HFA, Sita Standard 24-2 protocol; Zeiss, San Leandro, CA, USA). Such analysis represents the gold standard for diagnosis and follow-up of the glaucomatous patient and allows to represent graphically the extension in the space of the visual capability, by measuring even the peripheral vison thereof. Two analyses on each examination were performed and the second test was considered for the analysis. To perform the test, the patients were positioned in front of the instrument. After having rested forehead and chin inside the dome, with the covered unexamined eye, they started to fix a central target and pressed a button whenever they perceived against themselves aluminous stimulus, even if with poor intensity. MD was considered as perimetric index.

retinal ganglion cells = assay: Clinical observation: electro-functional test, PERG; assay type: in vivo, human; conditions: after 6 months of treatment, in addition to hypotensive therapy, 3 patients
Description: (§1) 12 randomized patients were included in 4 groups: • CIT. GROUP-3 patients treated with citicoline in oral solution 10 ml/die corresponding to 500 mg/die of citicoline, in addition to the hypotensive therapy; • NIC. […] The patients were treated and followed for 6 months. At baseline and after 6 months of treatment complete eye examination including visual acuity, control of the intraocular pressure (IOP) with Goldmann tonometry (GAT); visual field testing, electro-functional and morphological examination were performed. Then (2) electro-functional test was performed: electroretinogram from PERG pattern and of the PEV visual evoked potentials to evaluate the bioelectric responses respectively of the retinal ganglion cells and of the visual cortex evoked from the visual stimuli. The patients were positioned in an acoustically insulated semi-dark room, in front of the display surrounded by a uniform field of luminance of 5 cd/m2. […] The signal to PERG and PEV was recorded by a small electrode of Ag/AgCl positioned respectively above the lower eyelid and on the scalp. […] The peak-peak widths were measured at PERG P50-N95 for each wave. […] During a recording session, simultaneous PERG and PEV were recorded at least twice (between two and six times) and the resulting waveforms were overlapped to verify the repeatability of results. […]

visual cortex = assay: Clinical observation: electro-functional test, PEV visual evoked potentials; assay type: in vivo, human; conditions: after 6 months of treatment, in addition to hypotensive therapy, 3 patients
Description: as §1

| Compound | bioavailability [1] [%] | IOP [2] | change in MD [3] | MD [3] | PERG P50-N95 A (retinal ganglion cells) | PEV P100 IT (visual cortex) |
| --- | --- | --- | --- | --- | --- | --- |
| C[N+](C)(C)CCOP(=O)([O-])OP(=O)(O)OC[C@H]1O[C@@H](n2ccc(N)nc2=O)C(O)C1O (stereo partly drawn) [Citicoline, citidin-5′-difosfocholine] | ~100 | 13.8 (±1.8) | significant improvement in MD with respect to the baseline | −8.70 (±2.8) | 1.77 (±0.27) microV | 119.1 (±7.22) ms |
| NC(=O)c1cccnc1 [Nicotinamide] | ~100 | 14.0 (±2.3)^ | lower reduction in the MD value with respect to the not treated group | −8.92 (±2.6)*^ | 1.74 (±0.21) microV | 119.5 (±7.00) ms |
